Source: patent publication US20250163057A1, “DCN-1 MODULATING COMPOUNDS AND METHODS OF USE THEREOF” (Cellarity, Inc., priority 2023, published 2025)
Like-named read-outs stand apart in the source and are kept apart here.

Legend:
[1] = tested on: fetal hemoglobin gene HBG1; experiment: HBG1 Nanostring Assay in CD34+ HSPC erythroid differentiation culture; type: cell-based, human; conditions: for EC50: Homo sapiens, 240 h, HBG1 induction, Day10 of erythroid differentiation; for Nanostring Ymax obs (%): relative to a control compound (C1)
Method in brief: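 HBG1 counts came from direct nCounter hybridization (67° C, 22 h) of day-10 lysates, normalized to ERCC positive controls and a housekeeping gene, giving EC50 and Ymax versus a reference compound. Compounds in 0.1% DMSO were present from day −2 while cells underwent EPO/SCF/IL-3 erythroid differentiation, with IL-3 dropped at day 7, at 37° C.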

[2] = tested on: Cullin-3 (CUL3) neddylation; experiment: AlphaLISA assay for Cullin-3 (CUL3) neddylation in TF 1 cells; type: cell-based; conditions: Homo sapiens, TF-1, 3 h, 3 hours treatment
Method in brief: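 Neddylated CUL3 was quantified by AlphaLISA in lysates of TF 1 cells exposed for 3 h to test compound in IMDM without supplements. Percent inhibition set between vehicle and 1 μM DI-1548 positive control; IC50 derived by Hill-equation fitting of dose-response curves.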

[3] = target: DCN1 (DCUND1) protein PONY domain (Homo sapiens (Human), UniProt Q96GG9); experiment: TR-FRET assay, DCN1 binding with FAM-labeled probe
Method in brief: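 Biotinylated DCN1 PONY domain, labeled with streptavidin-Tb, was competed against a FAM-labeled non-covalent DCN1 inhibitor probe in buffer with TritonX and 200 mM NaCl. Conditions were 5 nM DCN1 with 20 nM FAM-probe, or 0.31 nM DCN1 with 100 nM FAM-plus 800 nM unlabeled probe. The TR-FRET ratio was read at 1, 5 and 24 h (0.1% DMSO).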

DCN1 protein = DCN1 protein (Homo sapiens (Human), UniProt Q96GG9); experiment: Intact Protein MS Analysis with the RapidFire-TOF System (covalent adduct formation); type: binding; conditions: MS Emax; 400 nM DCN1, 3 hours at room temperature
Method in brief: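 Tag-cleaved human DCN1 (400 nM) expressed in E. coli, in 25 mM Tris-HCl, 200 mM NaCl, 1 mM DTT, was incubated with 11 compound concentrations for 3 h at room temperature and quenched with 0.2% formic acid. Intact-protein Q-TOF MS with deconvolution detected the compound adduct mass.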

[4] = 24 hr after treatment with compound, read-out: TR FRET IC50 24 hr
[5] = read-out: TR FRET IC50 1 hr, 1 hr after treatment with compound
[6] = TR FRET IC50 1 hr (nM), 1 hr after treatment with compound

Sequence of DCN1 (DCUND1) protein PONY domain (Q96GG9 60-248): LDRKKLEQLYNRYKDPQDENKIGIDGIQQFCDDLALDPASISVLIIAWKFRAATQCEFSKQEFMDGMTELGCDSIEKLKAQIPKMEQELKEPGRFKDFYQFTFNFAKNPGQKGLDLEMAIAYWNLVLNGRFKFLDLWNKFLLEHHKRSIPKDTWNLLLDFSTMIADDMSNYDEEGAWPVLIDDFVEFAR
Sequence of DCN1 protein (Q96GG9 whole entry): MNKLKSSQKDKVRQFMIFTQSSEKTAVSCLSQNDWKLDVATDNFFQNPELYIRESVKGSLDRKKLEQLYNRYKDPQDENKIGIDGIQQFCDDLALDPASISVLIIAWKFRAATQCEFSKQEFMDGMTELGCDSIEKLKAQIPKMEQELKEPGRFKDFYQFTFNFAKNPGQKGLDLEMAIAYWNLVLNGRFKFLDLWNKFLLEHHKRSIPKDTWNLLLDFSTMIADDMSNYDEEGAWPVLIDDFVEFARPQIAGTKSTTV

`C=C(CN1CCOCC1)C(=O)N[C@H](C)c1nn(-c2ccccc2)c2c1[C@H](c1ccc(F)cc1)[C@H](NC(=O)c1cccc(C(F)(F)F)c1)C(=O)N2CC` (mixture of isomers) [Compound I-8] was tested, and the EC50 [1] was greater than 1000 nM, the “Nanostring Ymax obs (%)” value [1] was “++ (Nanostring Ymax greater than 50.0 and less than or equal to 100.0)” and the IC50 [2] was 100 to 1000 nM. For the same molecule, the IC50 [3, 4] was no more than 200 nM, the IC50 [3, 5] was no more than 200 nM and the “% Adduct Formation” value (DCN1 protein) was “+ (MS Emax % adduct formation greater than or equal to 0.0 and less than or equal to 30.0)”.
For `C=CS(=O)(=O)N[C@H](C)c1nn(-c2ccccc2)c2c1[C@H](c1ccc(F)cc1)[C@H](NC(=O)c1cccc(C(F)(F)F)c1)C(=O)N2CC` (mixture of isomers) [Compound I-74], the EC50 [1] was 100 to 1000 nM, the “Nanostring Ymax obs (%)” value [1] was “++ (Nanostring Ymax greater than 50.0 and less than or equal to 100.0)” and the IC50 [2] was no more than 100 nM. For the same molecule, the IC50 [3, 4] was no more than 200 nM, the IC50 [3, 5] was no more than 200 nM and the “% Adduct Formation” value (DCN1 protein) was “+++ (MS Emax % adduct formation greater than 80.0 and less than or equal to 100.0)”.
`C=C(C(=O)NCc1nn(-c2ccccc2)c2c1[C@@H](c1ccc(F)cc1)[C@H](NC(=O)c1cccc(C(F)(F)F)c1)C(=O)N2CC)C(C)N1CCOCC1` (mixture of isomers) [Compound I-88] was tested, and the EC50 [1] was greater than 1000 nM, the “Nanostring Ymax obs (%)” value [1] was “+ (Nanostring Ymax greater than or equal to 0.0 and less than or equal to 50.0)” and the IC50 [2] was no more than 100 nM. For the same molecule, the IC50 [3, 4] was no more than 200 nM, the IC50 [3, 5] was no more than 200 nM and the “% Adduct Formation” value (DCN1 protein) was “+ (MS Emax % adduct formation greater than or equal to 0.0 and less than or equal to 30.0)”.
`CCN1C(=O)[C@@H](NC(=O)c2cccc(C(F)(F)F)c2)[C@@H](c2ccc(F)cc2)c2c(NC(=O)[C@@H](C)Cl)nn(-c3ccccc3)c21` (mixture of isomers) [Compound I-101] was tested, and the EC50 [1] was greater than 1000 nM, the “Nanostring Ymax obs (%)” value [1] was “++ (Nanostring Ymax greater than 50.0 and less than or equal to 100.0)” and the IC50 [2] was 100 to 1000 nM. For the same molecule, the IC50 [3, 4] was 200 to 1000 nM, the IC50 [3, 6] was 200 to 1000 nM and the “% Adduct Formation” value (DCN1 protein) was “+ (MS Emax % adduct formation greater than or equal to 0.0 and less than or equal to 30.0)”.
With `C=CC(=O)N[C@@H](C)c1nn(-c2ccccc2)c2c1[C@H](c1ccc(F)cc1)[C@H](NC(=O)c1cccc(C(F)(F)F)c1)C(=O)N2CC` (mixture of isomers) [Compound I-143] the EC50 [1] was greater than 1000 nM, the “Nanostring Ymax obs (%)” value [1] was “+ (Nanostring Ymax greater than or equal to 0.0 and less than or equal to 50.0)” and the IC50 [2] was greater than 1000 nM. The IC50 [3, 4] was 200 to 1000 nM, the IC50 [3, 6] was 200 to 1000 nM and the “% Adduct Formation” value (DCN1 protein) was “+ (MS Emax % adduct formation greater than or equal to 0.0 and less than or equal to 30.0)”.
`CCN1C(=O)[C@@H](NC(=O)c2cccc(C(F)(F)F)c2)[C@@H](c2ccc(F)cc2)c2c(C(=O)N3CCCC[C@H]3C#N)nn(-c3ccccc3)c21` (mixture of isomers) [Compound I-270] was tested, and the EC50 [1] was 100 to 1000 nM, the “Nanostring Ymax obs (%)” value [1] was “++ (Nanostring Ymax greater than 50.0 and less than or equal to 100.0)” and the IC50 [2] was no more than 100 nM. The IC50 [3, 4] was no more than 200 nM, the IC50 [3, 5] was no more than 200 nM and the “% Adduct Formation” value (DCN1 protein) was “+++ (MS Emax % adduct formation greater than 80.0 and less than or equal to 100.0)”.
In the case of `CCN1C(=O)[C@@H](NC(=O)c2cccc(C(F)(F)F)c2)[C@@H](c2ccc(F)cc2)c2c(C(=O)N3C[C@H](F)C[C@H]3C#N)nn(-c3ccccc3)c21` (mixture of isomers) [Compound I-273], the “Nanostring Ymax obs (%)” value [1] is reported as “+++ (Nanostring Ymax greater than 100.0)”, the IC50 [2] is reported as no more than 100 nM and the IC50 [3, 4] is reported as no more than 200 nM. For the same molecule, the IC50 [3, 5] was no more than 200 nM and the “% Adduct Formation” value (DCN1 protein) was “+++ (MS Emax % adduct formation greater than 80.0 and less than or equal to 100.0)”.
`CCN1C(=O)[C@@H](NC(=O)c2cccc(C(F)(F)F)c2)[C@@H](c2ccc(F)cc2)c2c(C(=O)N3CCC[C@H]3C#N)nn(C3CCOCC3)c21` (mixture of isomers) [Compound I-292] was tested, and the EC50 [1] was no more than 100 nM, the “Nanostring Ymax obs (%)” value [1] was “+++ (Nanostring Ymax greater than 100.0)” and the IC50 [2] was no more than 100 nM. The IC50 [3, 4] was no more than 200 nM, the IC50 [3, 5] was no more than 200 nM and the “% Adduct Formation” value (DCN1 protein) was “+++ (MS Emax % adduct formation greater than 80.0 and less than or equal to 100.0)”.
`CCN1C(=O)[C@@H](NC(=O)c2cccc(C(F)(F)F)c2)[C@@H](C)c2c(C(=O)N3[C@H](C#N)C[C@H]4C[C@H]43)nn(C3CCOCC3)c21` (mixture of isomers) [Compound I-386] was tested, and the EC50 [1] was no more than 100 nM, the “Nanostring Ymax obs (%)” value [1] was “+++ (Nanostring Ymax greater than 100.0)” and the IC50 [2] was no more than 100 nM. The IC50 [3, 4] was no more than 200 nM, the IC50 [3, 5] was no more than 200 nM and the “% Adduct Formation” value (DCN1 protein) was “+++ (MS Emax % adduct formation greater than 80.0 and less than or equal to 100.0)”.
With `C=CS(=O)(=O)N(C)Cc1nn(-c2ccccc2)c2c1[C@H](c1ccc(F)cc1)[C@H](NC(=O)c1cccc(C(F)(F)F)c1)C(=O)N2CC` (racemic) [Compound I-1] the EC50 [1] was greater than 1000 nM, the “Nanostring Ymax obs (%)” value [1] was “++ (Nanostring Ymax greater than 50.0 and less than or equal to 100.0)” and the IC50 [2] was no more than 100 nM. The IC50 [3, 4] was no more than 200 nM, the IC50 [3, 5] was no more than 200 nM and the “% Adduct Formation” value (DCN1 protein) was “+++ (MS Emax % adduct formation greater than 80.0 and less than or equal to 100.0)”.
With `C=C(CC(=O)NCc1nn(-c2ccccc2)c2c1[C@H](c1ccc(F)cc1)[C@H](NC(=O)c1cccc(C(F)(F)F)c1)C(=O)N2CC)C(=O)OC` (racemic) [Compound I-4] the EC50 [1] was 100 to 1000 nM, the “Nanostring Ymax obs (%)” value [1] was “++ (Nanostring Ymax greater than 50.0 and less than or equal to 100.0)” and the IC50 [2] was no more than 100 nM. For the same molecule, the IC50 [3, 4] was no more than 200 nM, the IC50 [3, 6] was no more than 200 nM and the “% Adduct Formation” value (DCN1 protein) was “+++ (MS Emax % adduct formation greater than 80.0 and less than or equal to 100.0)”.
`CCN1C(=O)[C@@H](NC(=O)c2cccc(C(F)(F)F)c2)[C@@H](c2ccc(F)cc2)c2c(CNC(=O)C(C)(C)C#N)nn(-c3ccccc3)c21` (racemic) [Compound I-7, rac-N-((4R,5R)-3-((2-cyano-2-methylpropanamido)methyl)-7-ethyl-4-(4-fluorophenyl)-6-oxo-1-phenyl-4,5,6,7-tetrahydro-1H-pyrazolo[3,4-b]pyridine-5-yl)-3-(trifluoromethyl)benzamide] was tested, and the EC50 [1] was greater than 1000 nM, the “Nanostring Ymax obs (%)” value [1] was “+ (Nanostring Ymax greater than or equal to 0.0 and less than or equal to 50.0)” and the IC50 [2] was 100 to 1000 nM. The IC50 [3, 4] was 1000 to 3000 nM, the IC50 [3, 6] was 1000 to 3000 nM and the “% Adduct Formation” value (DCN1 protein) was “+ (MS Emax % adduct formation greater than or equal to 0.0 and less than or equal to 30.0)”.
For `CCN1C(=O)[C@@H](NC(=O)c2cccc(C(F)(F)F)c2)[C@@H](c2ccc(F)cc2)c2c(CNC(=O)C#CCN(C)C)nn(-c3ccccc3)c21` (racemic) [Compound I-19, rac-N-((4R,5R)-3-((4-(dimethylamino)but-2-ynamido)methyl)-7-ethyl-4-(4-fluorophenyl)-6-oxo-1-phenyl-4,5,6,7-tetrahydro-1H-pyrazolo[3,4-b]pyridine-5-yl)-3-(trifluoromethyl)benzamide], the EC50 [1] was no more than 100 nM, the “Nanostring Ymax obs (%)” value [1] was “+++ (Nanostring Ymax greater than 100.0)” and the IC50 [2] was no more than 100 nM. For the same molecule, the IC50 [3, 4] was no more than 200 nM, the IC50 [3, 6] was no more than 200 nM and the “% Adduct Formation” value (DCN1 protein) was “+++ (MS Emax % adduct formation greater than 80.0 and less than or equal to 100.0)”.
For `C=C(C)C(=O)Nc1nn(-c2ccccc2)c2c1[C@H](c1ccc(F)cc1)[C@H](NC(=O)c1cccc(C(F)(F)F)c1)C(=O)N2CC` (racemic) [Compound I-26], the EC50 [1] was 100 to 1000 nM, the “Nanostring Ymax obs (%)” value [1] was “++ (Nanostring Ymax greater than 50.0 and less than or equal to 100.0)” and the IC50 [2] was 100 to 1000 nM. For the same molecule, the IC50 [3, 4] was no more than 200 nM, the IC50 [3, 5] was no more than 200 nM and the “% Adduct Formation” value (DCN1 protein) was “+ (MS Emax % adduct formation greater than or equal to 0.0 and less than or equal to 30.0)”.
